The values below are quoted from earlier work in US20100278946A1, “HERBAL COMPOSITIONS COMPRISING PLANT MATERIAL OF ARTEMISIA HERBA-ALBA (ASSO) ASTERACEAE AND/OR EXTRACTS THEREOF” (priority 2007, published 2010).

Structures are written as SMILES. Read-outs that look alike come from different tables or passages of the source.

The test system of data set [1] is noncompetitive blocker site of the GABA gated chloride channel.
The test system of data set [2] is gamma-aminobutyric acid (GABA) type A receptor. The following applies: rat dorsal root ganglion neurons.
The mark [3] stands for this setting: 2.5 min after administration of alpha-thujone.
Where [4] appears, read: 30 min after administration of alpha-thujone, 40-60 mg/kg.

On to `CC1C(=O)CC2(C(C)(C)O)CC12` (stereo not drawn) [7-hydroxy-alpha-thujone], for which the “level in the brain” value was 29 ppm under setting [3] and 1.5-8.4 ppm under setting [4].

With `CC1C(=O)CC2(C(C)C)CC12` (stereo not drawn) [Beta-thujone, beta-thujone], the “toxicity compared with alpha-thujone” value in the data set with mice (mice (Rice and Wilson, 1976) and Drosophila) is listed as “less toxic”. Besides, in data set [1] ([3H]EBOB assay), the “potency relative to alpha-thujone (fold less potent)” value is given as 2.3 fold.

Consider `CC(C)[C@]12CC(=O)[C@H](C)[C@H]1C2` [alpha-thujone], for which, in data set [2], the “effect on GABA-induced peak currents” value was “suppressed”. The “level in the brain” value is given as 11 ppm under setting [3] and 0.3-1.0 ppm under setting [4]. Further, the “time to death after tonic convulsion” value in the data set on mice (mice at the higher dose (60 mg/kg)) was at most 1 min. For the same compound, the mortality entry in the data set with mice (mice, dose of 30 mg/kg) was “no death”; with mice (mice, dose of 60 mg/kg) it was 100%. The “i.p. LD50” value in the data set with mice (mice, i.p.) was “about 45 mg/kg”. Further, the “mode of inhibition of EBOB binding” value in data set [1] was “competitive inhibitor”. The “potency compared with 7-hydroxy-alpha-thujone (fold more potent)” value in data set [1] ([3H]EBOB binding assay) is recorded as 56 fold.

For the compound `CN1C(=O)CN=C(c2ccccc2)c2cc(Cl)ccc21` [diazepam], in the data set on mice (intraperitoneal administration 15 min before alpha-thujone at 100 mg/kg), the “survival of mice given an otherwise lethal dose of alpha-thujone” value is listed as “almost all of the mice surviving”.
